US12673961B2 (Agios Pharmaceuticals, Inc., priority 2022, dated 2026)

Target: T1, human PAH with the R408W mutation (Homo sapiens, UniProt P00439, R408W)
T1 construct: expressed in transfected cells
T1 sequence (P00439 1-452 R408W): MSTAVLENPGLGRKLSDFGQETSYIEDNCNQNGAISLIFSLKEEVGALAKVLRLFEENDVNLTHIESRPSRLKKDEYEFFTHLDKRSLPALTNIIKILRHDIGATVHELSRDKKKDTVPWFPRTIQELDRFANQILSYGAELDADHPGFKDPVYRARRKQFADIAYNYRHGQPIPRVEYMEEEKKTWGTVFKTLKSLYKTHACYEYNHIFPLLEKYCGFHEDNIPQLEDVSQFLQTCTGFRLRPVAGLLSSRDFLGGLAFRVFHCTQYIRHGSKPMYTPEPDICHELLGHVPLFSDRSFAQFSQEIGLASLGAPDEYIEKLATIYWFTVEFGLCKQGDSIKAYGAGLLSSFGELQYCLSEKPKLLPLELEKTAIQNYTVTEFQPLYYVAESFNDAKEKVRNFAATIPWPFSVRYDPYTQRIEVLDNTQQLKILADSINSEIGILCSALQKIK
Test: Cell Based Phenylalanine Flux Assay;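 also: Ten-point dose curve from 2-fold serial dilutions, run in duplicate at 0.5% DMSO final, tracer step used 20 µM sepiapterin and 800 µM labeled phenylalanine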
Conditions: A375 cells expressing human R408W PAH; 24 hrs with compound, then sepiapterin and 13C9,15N-Phenylalanine for 4 hours; 13C-Tyrosine by LC-MS; average where tested multiple times; read-out: AC50

Structure (SMILES) | AC50
O=C(c1nnc(-c2ccccn2)o1)N1CCc2[nH]cnc2[C@@H]1c1cc2cccc(C(F)F)n2n1 [Example 1420, (R)-(4-(7-(difluoromethyl)pyrazolo[1,5-a]pyridin-2-yl)-6,7-dihydro-1H-imidazo [4,5-c]pyridin-5(4H)-yl)(5-(pyridin-2-yl)-1,3,4-oxadiazol-2-yl)methanone] | > 5 µM
O=C(c1nnc(-c2cccnc2)o1)N1CCc2[nH]cnc2[C@@H]1c1cc2c(C(F)F)cccn2n1 [Example 1423, (R)-(4-(4-(difluoromethyl)pyrazolo[1,5-a]pyridin-2-yl)-6,7-dihydro-1H-imidazo [4,5-c]pyridin-5(4H)-yl)(5-(pyridin-3-yl)-1,3,4-oxadiazol-2-yl)methanone] | > 5 µM
COc1ccc(-c2nnc(C(=O)N3CCc4[nH]cnc4[C@H]3c3cc4c(C(F)F)cccn4n3)o2)nc1 [Example 1424, (S)-(4-(4-(difluoromethyl)pyrazolo[1,5-a]pyridin-2-yl)-6,7-dihydro-1H-imidazo [4,5-c]pyridin-5(4H)-yl)(5-(5-methoxypyridin-2-yl)-1,3,4-oxadiazol-2-yl)methanone] | < 0.5 µM
Cc1cccc(-c2nnc(C(=O)N3CCc4[nH]cnc4[C@@H]3c3cc4c(C)cccn4n3)o2)n1 [Example 1428, (R)-(4-(4-methylpyrazolo [1,5-a]pyridin-2-yl)-6,7-dihydro-1H-imidazo[4,5-c]pyridin-5(4H)-yl)(5-(6-methylpyridin-2-yl)-1,3,4-oxadiazol-2-yl)methanone] | > 5 µM
Cc1cccc(-c2nnc(C(=O)N3CCc4[nH]cnc4[C@H]3c3cc4c(C)cccn4n3)o2)n1 [Example 1429, (S)-(4-(4-methylpyrazolo [1,5-a]pyridin-2-yl)-6,7-dihydro-1H-imidazo[4,5-c]pyridin-5(4H)-yl)(5-(6-methylpyridin-2-yl)-1,3,4-oxadiazol-2-yl)methanone] | < 0.5 µM
Cc1cccc(-c2nnc(C(=O)N3CCc4[nH]cnc4[C@H]3c3cc4c(Cl)cccn4n3)o2)n1 [Example 1431, (S)-(4-(4-chloropyrazolo [1,5-a]pyridin-2-yl)-6,7-dihydro-1H-imidazo[4,5-c]pyridin-5(4H)-yl)(5-(6-methylpyridin-2-yl)-1,3,4-oxadiazol-2-yl)methanone] | < 0.5 µM
Cc1cccc(-c2nnc(C(=O)N3CCc4[nH]cnc4[C@H]3c3cc4c(C(F)(F)F)cccn4n3)o2)n1 [Example 1433, (S)-(5-(6-methylpyridin-2-yl)-1,3,4-oxadiazol-2-yl)(4-(4-(trifluoromethyl)pyrazolo [1,5-a]pyridin-2-yl)-6,7-dihydro-1H-imidazo[4,5-c]pyridin-5(4H)-yl)methanone] | < 0.5 µM
Cn1ccc(-c2ccc3c(C(=O)N4CCc5[nH]cnc5[C@H]4c4cc5ccccn5n4)cnn3c2)n1 [Example 1434, (S)-(6-(1-methyl-1H-pyrazol-3-yl)pyrazolo[1,5-a]pyridin-3-yl)(4-(pyrazolo [1,5-a]pyridin-2-yl)-6,7-dihydro-1H-imidazo[4,5-c]pyridin-5(4H)-yl)methanone] | 0.5 to 1 µM
Cn1ccc(-c2ccc3c(C(=O)N4CCc5[nH]cnc5[C@@H]4c4cc5ccccn5n4)cnn3c2)n1 [Example 1435, (R)-(6-(1-methyl-1H-pyrazol-3-yl)pyrazolo[1,5-a]pyridin-3-yl)(4-(pyrazolo [1,5-a]pyridin-2-yl)-6,7-dihydro-1H-imidazo[4,5-c]pyridin-5(4H)-yl)methanone] | 1 to 5 µM
CC(C)(F)c1nnc(C(=O)N2CCc3[nH]cnc3[C@H]2c2cc3cccc(C(F)F)n3n2)o1 [Example 1436, (S)-(4-(7-(difluoromethyl)pyrazolo[1,5-a]pyridin-2-yl)-6,7-dihydro-1H-imidazo[4,5-c]pyridin-5(4H)-yl)(5-(2-fluoropropan-2-yl)-1,3,4-oxadiazol-2-yl)methanone] | 0.5 to 1 µM

The remaining lines, values ahead:

AC50 | Structure (SMILES)
1 to 5 µM | CC(C)(F)c1nnc(C(=O)N2CCc3[nH]cnc3[C@@H]2c2cc3cccc(C(F)F)n3n2)o1 [Example 1437, (R)-(4-(7-(difluoromethyl)pyrazolo[1,5-a]pyridin-2-yl)-6,7-dihydro-1H-imidazo[4,5-c]pyridin-5(4H)-yl)(5-(2-fluoropropan-2-yl)-1,3,4-oxadiazol-2-yl)methanone]
1 to 5 µM | O=C(c1nnc(-c2ccn(C(F)F)n2)o1)N1CCc2[nH]cnc2[C@@H]1c1cc2cccc(C(F)F)n2n1 [Example 1443, (R)-(5-(1-(difluoromethyl)-1H-pyrazol-3-yl)-1,3,4-oxadiazol-2-yl)(4-(7-(difluoromethyl)pyrazolo[1,5-a]pyridin-2-yl)-6,7-dihydro-1H-imidazo[4,5-c]pyridin-5(4H)-yl)methanone]
0.5 to 1 µM | Cc1cccc2cc([C@@H]3c4nc[nH]c4CCN3C(=O)c3nnc(-c4cnn(C(F)(F)F)c4)o3)nn12 [Example 1446, (S)-(4-(7-methylpyrazolo [1,5-a]pyridin-2-yl)-6,7-dihydro-1H-imidazo[4,5-c]pyridin-5(4H)-yl)(5-(1-(trifluoromethyl)-1H-pyrazol-4-yl)-1,3,4-oxadiazol-2-yl)methanone]
> 5 µM | CC(C)c1nnc(C(=O)N2CCc3[nH]cnc3[C@@H]2c2cc3c(F)cccn3n2)o1 [Example 1453, (R)-(4-(4-fluoropyrazolo [1,5-a]pyridin-2-yl)-6,7-dihydro-1H-imidazo[4,5-c]pyridin-5(4H)-yl)(5-isopropyl-1,3,4-oxadiazol-2-yl)methanone]
< 0.5 µM | Cc1nn(C)cc1-c1nnc(C(=O)N2CCc3[nH]cnc3[C@H]2c2cc3c(C(F)F)cccn3n2)o1 [Example 1466, (S)-(4-(4-(difluoromethyl)pyrazolo[1,5-a]pyridin-2-yl)-6,7-dihydro-1H-imidazo[4,5-c]pyridin-5(4H)-yl)(5-(1,3-dimethyl-1H-pyrazol-4-yl)-1,3,4-oxadiazol-2-yl)methanone]
1 to 5 µM | Cc1cccc(-c2nnc(C(=O)N3CCc4[nH]cnc4[C@@H]3c3cc4c(F)cccn4n3)o2)n1 [Example 1471, (R)-(4-(4-fluoropyrazolo [1,5-a]pyridin-2-yl)-6,7-dihydro-1H-imidazo[4,5-c]pyridin-5(4H)-yl)(5-(6-methylpyridin-2-yl)-1,3,4-oxadiazol-2-yl)methanone]
< 0.5 µM | O=C(c1nnc(-c2ccn(C(F)(F)F)n2)o1)N1CCc2[nH]cnc2[C@H]1c1cc2c(Cl)cccn2n1 [Example 1476, (S)-(4-(4-chloropyrazolo [1,5-a]pyridin-2-yl)-6,7-dihydro-1H-imidazo[4,5-c]pyridin-5(4H)-yl)(5-(1-(trifluoromethyl)-1H-pyrazol-3-yl)-1,3,4-oxadiazol-2-yl)methanone]
1 to 5 µM | Cc1cccn2nc([C@H]3c4nc[nH]c4CCN3C(=O)c3nnc(-c4ccn(C(F)(F)F)n4)o3)cc12 [Example 1479, (R)-(4-(4-methylpyrazolo [1,5-a]pyridin-2-yl)-6,7-dihydro-1H-imidazo[4,5-c]pyridin-5(4H)-yl)(5-(1-(trifluoromethyl)-1H-pyrazol-3-yl)-1,3,4-oxadiazol-2-yl)methanone]
< 0.5 µM | O=C(c1nnc(-c2ccn(C(F)(F)F)n2)o1)N1CCc2[nH]cnc2[C@H]1c1cc2c(F)cccn2n1 [Example 1482, (S)-(4-(4-fluoropyrazolo[1,5-a]pyridin-2-yl)-6,7-dihydro-1H-imidazo[4,5-c]pyridin-5(4H)-yl)(5-(1-(trifluoromethyl)-1H-pyrazol-3-yl)-1,3,4-oxadiazol-2-yl)methanone]
